Data as given in the NIST ThermoML archive (doi:10.1016/j.jct.2010.01.016).

What was measured:
[1] = Liquid; for vapor or sublimation pressure: Closed cell (Static) method; for mass density: 298.15 K, 101.33 kPa, Vibrating tube method
[2] = excess molar enthalpy (molar enthalpy of mixing); xn = mol fraction of the nth substance listed; conditions: 303.15 K, 101 kPa, Liquid, Calvet calorimetry

CCN(CC)CCCN [N,N-diethylpropane-1,3-diamine]
[1]
Conditions	vapor or sublimation pressure [kPa]
273.15 K	0.031
283.15 K	0.073
293.15 K	0.155
303.15 K	0.31
313.15 K	0.586
323.15 K	1.053
333.15 K	1.809
343.15 K	2.987
353.15 K	4.759
363.15 K	7.346

Conditions	mass density [kg/m3]
[1]	821.363

CCN(CC)CCCN [N,N-diethylpropane-1,3-diamine] + C1CCCCC1
[2]
Conditions	excess molar enthalpy [kcal/mol]
x1 = 0.1022	0.141
x1 = 0.2027	0.209
x1 = 0.3028	0.245
x1 = 0.3197	0.247
x1 = 0.3519	0.251
x1 = 0.3953	0.255
x1 = 0.407	0.257
x1 = 0.4449	0.257
x1 = 0.4943	0.254
x1 = 0.5061	0.255
x1 = 0.5307	0.248
x1 = 0.5351	0.248
x1 = 0.5595	0.243
x1 = 0.5741	0.239
x1 = 0.6073	0.228
x1 = 0.6523	0.21
x1 = 0.7017	0.187
x1 = 0.7997	0.131
x1 = 0.8696	0.0837

C1CCCCC1 [cyclohexane]
[1]
Conditions	vapor or sublimation pressure [kPa]
273.15 K	3.726
283.15 K	6.352
293.15 K	10.36
303.15 K	16.26
313.15 K	24.65
323.15 K	36.24
333.15 K	51.85
343.15 K	72.4
353.15 K	98.87
363.15 K	132.35

Conditions	mass density [kg/m3]
[1]	774.1
